Values after ≈ are worked out from the molar mass of the structure shown. Where two headings read alike, the source gives them in different places.
Tests used:
Klebsiella 63 = test: MIC plate test; type: cell-based; settings: nutrient medium, 37°C, 24 hours
Source text: (§1) The antimicrobial activity of these compounds can be conveniently observe in in vitro and in vivo models. For example, their minimum inhibitory concentration (MIC) can be determined in the plate test on a complete nutrient base of the following composition: 10 g of proteose-peptone, 10 g of veal infusion, 2 g of dextrose, 3 g of sodium chloride, 2 g of disodium phosphate, 1 g of sodium acetate, 0.01 g of adenine sulfate, 0.01 g of guanine hydrochloride, 0.01 g of uracil, 0.01 g of xantine, 12 g of agar-agar and 1 liter of water. With an incubation temperature of 37°C and an incubation time of 24 hours, the following typical values can be observed: […]

Klebsiella 8085 = test: MIC plate test; type: cell-based; settings: nutrient medium, 37°C, 24 hours
Source text: as §1

Proteus vulgaris 1017 = test: MIC plate test; type: cell-based; settings: nutrient medium, 37°C, 24 hours
Source text: as §1

[1] = tested on: Pseudomonas aeruginosa BONN; test: MIC plate test; type: cell-based; settings: nutrient medium, 37°C, 24 hours
Source text: as §1

Pseudomonas aeruginosa W = test: MIC plate test; type: cell-based; settings: nutrient medium, 37°C, 24 hours
Source text: as §1

[2] = tested on: Staphylococcus aureus 133; test: MIC plate test; type: cell-based; settings: nutrient medium, 37°C, 24 hours
Source text: as §1

Streptococcus pyogenes W = test: MIC plate test; type: cell-based; settings: nutrient medium, 37°C, 24 hours
Source text: as §1

E. coli A 261 = test: MIC plate test; type: cell-based, Escherichia coli; settings: 37°C, 24 hours
Source text: as §1

E. coli C 165 = test: MIC plate test; type: cell-based, Escherichia coli; settings: 37°C, 24 hours
Source text: as §1

E.coli C 165 = test: in vivo infection of white mice, subcutaneous administration; settings: 15 minutes before intraperitoneal infection, 24 hours later
Source text: (§2) The above in vitro data are confirmed in in vivo infections.

[3] = tested on: Staphylococcus aureus 133; test: as above; settings: 15 minutes before intraperitoneal infection, 24 hours later
Source text: as §2

[4] = growth promoting activity and fodder utilisation in chicken; type: in vivo; settings: 10 PPM in fodder
Protocol: The growth promoting activity of the new compounds and their effectiveness in improving the fodder utilisation may be illustrated by the following data:
Test animals : chicken (kept in cages, with complete fodder and water ad libitum)
The active ingredient is mixed in a finely divided form to the fodder according to customary methods. The tests were performed with 12 animals in each tested group.
Active ingredient: compound of Example 4
Concentration of the active ingredient in the fodder: […]

Nc1n[n+]([O-])c2ccccc2[n+]1[O-] [Compound A, 3-amino-1,2,4-benzotriazine-1,4-di-N-oxide]
MIC (Klebsiella 63; read-out: MIC): 4 µg/mL (≈ 22.5 µM)
MIC (Klebsiella 8085; read-out: MIC): 2 µg/mL (≈ 11.2 µM)
MIC (Proteus vulgaris 1017; read-out: MIC): 2 µg/mL (≈ 11.2 µM)
MIC ([1]; read-out: MIC): 8 µg/mL (≈ 44.9 µM)
MIC (Pseudomonas aeruginosa W; read-out: MIC): 64 µg/mL (≈ 359 µM)
MIC ([2]; read-out: MIC): 16 µg/mL (≈ 89.8 µM)
MIC (Streptococcus pyogenes W; read-out: MIC): 32 µg/mL (≈ 180 µM)
MIC (E. coli A 261; Escherichia coli, A261, nutrient medium, read-out: MIC): 4 µg/mL (≈ 22.5 µM)
MIC (E. coli C 165; Escherichia coli, C165, nutrient medium, read-out: MIC): 4 µg/mL (≈ 22.5 µM)
ED50 (E.coli C 165; Escherichia coli, C165, sc, read-out: ED50): 20 mg/kg

isomeric mixture of 6-chloro- and 7-chloro-3-amino-1,2,4-benzotriazine-1,4-di-N-oxide [Compound B]
MIC (Klebsiella 63): 8 µg/mL
MIC (Klebsiella 8085): 1 µg/mL
MIC (Proteus vulgaris 1017): 4 µg/mL
MIC [1]: 128 µg/mL
MIC (Pseudomonas aeruginosa W): 128 µg/mL
MIC [2]: 8 µg/mL
MIC (Streptococcus pyogenes W): 8 µg/mL
MIC (E. coli A 261; nutrient medium): 8 µg/mL
MIC (E. coli C 165; nutrient medium): 8 µg/mL
ED50 [3]: 250 mg/kg

isomeric mixture of 6-methoxy and 7-methoxy-3-amino-1,2,4-benzotriazine-1,4-di-N-oxide [Compound C]
MIC (Klebsiella 63): 2 µg/mL
MIC (Klebsiella 8085): 1 µg/mL
MIC (Proteus vulgaris 1017): 1 µg/mL
MIC [1]: 32 µg/mL
MIC (Pseudomonas aeruginosa W): 64 µg/mL
MIC [2]: 4 µg/mL
MIC (Streptococcus pyogenes W): 4 µg/mL
MIC (E. coli A 261; nutrient medium): 2 µg/mL
MIC (E. coli C 165; nutrient medium): 2 µg/mL
ED50 (E.coli C 165): 25 mg/kg
ED50 [3]: 40 mg/kg
Consumption of fodder in relation to the control group ([4]; week 0): 100%
Weight increase in relation to the control group ([4]; week 0): 100%
weight increase (all animals) ([4]; week 0): 75 gram
Consumption of fodder in relation to the control group ([4]; week 1): 85.7%
Weight increase in relation to the control group ([4]; week 1): 102.8%
weight increase (all animals) ([4]; week 1): 148.4 gram
Consumption of fodder in relation to the control group ([4]; week 2): 90.4%
Weight increase in relation to the control group ([4]; week 2): 109.0%
weight increase (all animals) ([4]; week 2): 276.7 gram
Consumption of fodder in relation to the control group ([4]; week 3): 93.4%
Weight increase in relation to the control group ([4]; week 3): 105.8%
weight increase (all animals) ([4]; week 3): 475.0 gram
Consumption of fodder in relation to the control group ([4]; week 4): 98.5%
Weight increase in relation to the control group ([4]; week 4): 110.4%
weight increase (all animals) ([4]; week 4): 761.8 gram
Consumption of fodder in relation to the control group ([4]; week 5): 101.1%
Weight increase in relation to the control group ([4]; week 5): 106.4%
weight increase (all animals) ([4]; week 5): 1019.1 gram
Consumption of fodder in relation to the control group ([4]; week 6): 92.2%
Weight increase in relation to the control group ([4]; week 6): 106.0%
weight increase (all animals) ([4]; week 6): 1296.4 gram

— patent US3980779A, “3-Amino-1,2,4-benzotriazine-1,4-di-N-oxide compositions and method of using same” (Bayer Aktiengesellschaft, priority 1972, dated 1976)
